Test results taken from patent US20250057808A1, “COMPOSITION COMPRISING BETA LACTAM FOR TREATING ALCOHOL DEPENDENCE AND ALCOHOL ASSOCIATED DISEASES OR CONDITIONS” (Temple University of the Commonwealth System of Higher …, priority 2023, published 2025).
Entries after “also recorded” stand apart in the source; their conditions may differ.

Key:
[1] = system: HMGβ-1; test: Western blot HMGβ-1 in subregions of mPFC and NAc; type: in vivo, Male P rats
Protocol: (§1) All P rats were euthanized by CO2 inhalation and decapitated with a guillotine 24 hours after the final i.p. injection was administered on Day 6 of Week 6. Brains were removed and immediately frozen on dry ice and stored at −80° C. The mPFC subregions (infralimbic cortex and prelimbic cortex) and NAc subregions (core and shell) were dissected using a cryostat machine kept at −20° C. Surgical blades were used to dissect all brain regions following visualized landmarks using the stereotaxic coordinates provided by Paxinos and colleague's rat brain stereotactic atlas. All brain regions were stored in −80° C. Western Blot analyses.
(§2) Western blot was performed to determine the expression of BDNF, TNF-α, RAGE, HMGβ-1, and β-tubulin in the subregions of mPFC and NAc as preformed in previous studies.
(§3) Brain samples were lysed with a lysing buffer containing protease inhibitors. The amount of protein in each sample was quantified using a detergent compatible protein assay (Bio-Rad, Hercules, CA, USA). Polyacrylamide gels (10%) were loaded with the lysate mixture, and proteins were separated using gel electrophoresis for 1 hour. Proteins were then transferred from the gels onto Polyvinylidene difluoride (PVDF) membranes (BioRad). After transfer, membranes were incubated for 30 minutes in a mixture of nonfat milk in 1×Tris-buffered saline with Tween-20 (TBST) at room temperature. Membranes were then incubated at 4° C. for 24 hours with primary antibodies: anti-rabbit BDNF (1:1000, Abeam, #ab108319), anti-rabbit TNF-α (1:500, Abeam, #ab9739), anti-rabbit HMGβ-1 (1:500, Abeam, #ab18256), and anti-rabbit RAGE (1:1000, Abeam, #ab37407). Anti-mouse-β-tubulin (1:1000, Cell Signaling Technology, #D71G9) was used as a loading control antibody. After incubating for 24 hours, secondary antibody such as donkey anti-rabbit (1:4000, Invitrogen, #31458) or anti-mouse (1:4000, Cell Signaling, #7076S) was added to the membrane for 1 hour at room temperature. The membranes were then washed with 1×TBST three times for 5 minutes each and then dried. Membranes were then incubated in chemiluminescent reagents (Super Signal West Pico, Pierce Inc.) for 2 minutes. Blot images were developed using ChemiDoc. Imaging System and ImageJ software version 1.53a were used to quantify and analyze the expression of BDNF, TNF-α, RAGE, HMGβ-1, and β-tubulin.
(§4) The data for the water/saline control group were expressed as 100% based on the values corresponding to the ethanol/saline and ethanol/MC-100093 groups for each set of blotting. Thus, the expression of selected proteins for each group (ethanol/saline group or ethanol/MC-100093 group) was calculated relative to the water/saline control group being set to 100%.
(§5) Statistical analyses were performed using GraphPad Prism Version 10. Two-way repeated measures ANOVA followed by Bonferroni post-hoc tests were used to compare water and ethanol intake, and body weight, amongst water group, ethanol/saline group and ethanol/MC-100093 group. A one-way ANOVA test was performed to compare the expression of the studied proteins in selected brain regions in water/saline, ethanol/saline and ethanol/MC-100093 groups. Statistical significance was determined by a p-value of or less than 0.05.

[2] = system: PPAR-α; test: Western blot PPAR-α expression in NAc-core, NAc-shell and liver; type: in vivo, P rats; conditions: MC-100093 50 mg/kg or ceftriaxone 200 mg/kg i.p. 5 days; among all groups
Protocol: We used micro-punch procedure to dissect the subregions of the NAc such as NAc-core and NAc-shell as well as the subregions of prefrontal cortex such as infralimbic (IL) and prelimbic (PL) from the brain on day 6 after the last injection day. P rats were removed from the cage and rapidly euthanized by CO2 inhalation followed by rapid decapitation with a guillotine. Brains were isolated and immediately frozen on dry ice and stored at −80° C. The stereotaxic coordinates provided by Paxinos and colleague's rat brain stereotactic atlas was used to isolate NAc-core and NAc-shell using a cryostat apparatus (−20° C.), which then kept at −80° C. for later western blot analyses.
Western Blot assay was performed to measure changes in the expression of GLT-1, xCT, mGluR1, mGluR5, PPAR-α, PPARγ, GAPDH and β-tubulin in the NAc-core and NAc-shell as described in previous publications. A lysis buffer containing protease and phosphatase inhibitors was used to generate a homogenate of liver, Nac-core, and Nac-shell samples. The amount of protein was quantified using a detergent compatible protein assay (Bio-Rad, Hercules, CA, USA) for each sample. Samples were mixed with laemmli dye and loaded with equal amounts on polyacrylamide gels (10%), which separated the proteins using electrophoresis. After that, polyvinylidene difluoride (PVDF) membranes were used to transfer the proteins electrophoretically from the gels. Membranes were incubated in 5% free-fat milk in Tris-buffered saline with Tween-20 (TBST) for 30-60 minutes at room temperature. Membranes were then incubated with appropriate primary antibodies overnight at 4° C.: rabbit anti-GLT-1 (1:5000, Abcam, ab41621), rabbit anti-xCT (1:2000, Abcam, ab175186), rabbit anti-mGluR1 (1:1000, Abcam, ab82211), rabbit anti-mGluR5 (1:1000, Abcam, ab76316), rabbit anti-PPAR-α (1:1000, Abcam, ab24509), and rabbit anti-PPARγ (1:1000, Abcam, ab209350). Mouse anti-β-tubulin (1:1000; BioLegend) was used as a loading control antibody for the brain samples and rabbit anti-GAPDH (1:5000; cell signaling) was used as a loading control antibody for the liver samples. Membranes were washed five times on the next day with TBST followed by incubation with appropriate secondary antibody (1:5000) for 90 minutes at room temperature. Chemiluminescent reagents (Super Signal West Pico, Pierce Inc.) were used to detect the proteins using a GeneSys imaging system to develop the digitized blot images. Water-control group data were represented as 100% and all other values were expressed relative to control group to detect changes in the expression of the protein of interest in the brain and liver samples.
All statistical analyses were conducted with Graphpad Prism software, with p-values of 0.05 or less being statistically significant. […]

[3] = rodent liver microsomes in vitro; cited from earlier work
[4] = system: TNF-α; test: Western blot TNF-α in subregions of mPFC and NAc; type: in vivo, Male P rats
Protocol: as §1, §2, §3, §4, §5

[5] = 100 mg/kg i.p., compared to ethanol/saline group
[6] = post-treatment with MC-100093 100 mg/kg i.p., 100 mg/kg

Q: What does the source list for `C[C@@H](O)[C@H]1C(=O)N[C@@H]1[C@@H](C)C(=O)N1CCN(C)CC1` [MC-100093]?
A: HMGβ-1 expression in the NAc shell ([1]; 100 mg/kg i.p., compared to ethanol group): decreased the expression of HMGβ-1; HMGβ-1 expression in the IL [1, 5]: decreased HMGβ-1 expression; HMGβ-1 expression in the NAc core [1, 5]: decreased the expression of HMGβ-1; HMGβ-1 expression in the PL [1, 5]: decreased the expression of HMGβ-1; HMGβ-1 expression in IL, PL, NAc core and NAc shell (summary) [1, 6]: normalized HMGβ-1 expression in all these brain regions; also recorded: attenuated ethanol-induced upregulation of pro-inflammatory cytokines such as TNF-a and HMGB1; Protein expression of PPAR-α in the NAc-core [2]: non-significant differences; also recorded: did not detect significant changes; Protein expression of PPAR-α in the NAc-shell [2]: non-significant differences; also recorded: did not detect significant changes; Stability in liver microsomes [3]: high stability; TNF-α expression in the IL [4, 5]: decreased significantly TNF-α expression; TNF-α expression in the NAc core [4, 5]: decreased significantly TNF-α expression; TNF-α expression in the NAc shell [4, 5]: decreased TNF-α expression; TNF-α expression in the PL [4, 5]: significantly decreased the expression of TNF-α; TNF-α expression in IL, PL, NAc core and NAc shell (summary) [4, 6]: normalized TNF-α expression in all these brain regions; also recorded: attenuated ethanol-induced upregulation of pro-inflammatory cytokines such as TNF-a and HMGB1
